Assay results published in patent publication US20120231069A1, “Targeted Nanocarrier Systems for Delivery of Actives Across Biological Membranes” (Access Pharmaceuticals, Inc., priority 2011, published 2012).

Tested on: Diabetic Rats
Test: Blood glucose reduction in streptozotocin-diabetic rats after oral gavage
Type: in vivo
Conditions: diabetic female Wistar rats, oral gavage 0.5 mL of 20 IU/mL insulin
Method: Female Wistar rats (200 g) were housed at room temperature with 12 h light/dark cycle. All animals had ad libitum access to a standard chow diet and water except wherever indicated. The rats were allowed to acclimatize for a period of 7 days in the new environment before initiation of the experiment. After randomization into groups of 4, each rat was marked and followed individually throughout the study. All rats were fasted for 1 hour. Streptozotocin obtained from Sigma (98% HPLC) was administered by IV injection at a dose of 55-65 mg/kg in 0.1M citrate buffer (pH 4.5) followed by an additional 1 hour fast. Blood was collected daily from the tail and blood glucose levels were measured using an Accu-Chek® (Compact Plus-Roche) blood glucose monitor. When all animals in the group had achieved a blood glucose level of >250 mg/dl (5 days) the insulin metabolism phase was begun. All animals were fasted for 1 hour and a blood glucose measurement taken (T=0). Groups of rats were dosed by oral gavage with 0.5 mL of an aqueous preparation of insulin nanoparticles (containing 20 IU/mL of insulin) of example 9, or 0.5 mL of an aqueous solution of bovine insulin (20 IU/mL). The animals were then fasted for another hour and blood glucose levels were measured at 1, 4, 8 and 24 hours after dosing.

## plain insulin formulation: aqueous solution of bovine insulin (20 IU/mL), oral comparator
8 hours after dosing
  increase in blood glucose level (compared to T=0): 1%
24 hours after dosing
  increase in blood glucose level (compared to T=0): 21%
